From patent publication US10759751B2, “Substituted spirocyclohexanes as muscarinic M1 receptor and/or M4 receptor agonists” (Heptares Therapeutics Limited, priority 2016, dated 2020)

Experiments:
Format in all cases: cell-based
[1] = biological target: T1, human muscarinic M2 receptor (Homo sapiens, UniProt P08172); assay: Alphascreen Surefire phospho-ERK1/2 functional assay, M2; conditions: for EC50: CHO cells stably expressing human M2, phospho-ERK1/2, read-out: pEC50 M2 (converted); for Emax: CHO, read-out: M2 % Emax cf. ACh
T1 sequence (P08172 1-466): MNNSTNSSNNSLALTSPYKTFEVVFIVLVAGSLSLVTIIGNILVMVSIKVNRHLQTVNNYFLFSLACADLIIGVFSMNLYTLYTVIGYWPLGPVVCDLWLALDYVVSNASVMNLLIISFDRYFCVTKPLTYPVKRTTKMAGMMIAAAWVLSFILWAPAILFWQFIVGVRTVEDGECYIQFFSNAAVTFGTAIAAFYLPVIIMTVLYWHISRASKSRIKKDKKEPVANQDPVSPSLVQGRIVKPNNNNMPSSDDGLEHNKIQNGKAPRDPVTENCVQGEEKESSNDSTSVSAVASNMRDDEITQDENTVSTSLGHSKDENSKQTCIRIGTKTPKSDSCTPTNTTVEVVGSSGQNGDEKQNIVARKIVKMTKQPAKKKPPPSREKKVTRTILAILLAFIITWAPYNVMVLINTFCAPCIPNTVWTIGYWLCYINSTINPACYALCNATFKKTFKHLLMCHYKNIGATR
Procedure, shortened: (§1)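 CHO cells stably expressing human M1, M2, M3 or M4 receptor, serum-starved overnight, then stimulated with agonist for 5 min at 37 °C. Phospho-ERK1/2 quantified in lysates by AlphaScreen SureFire. pEC50 and Emax derived per subtype.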

[2] = biological target: T2, human muscarinic M3 receptor (Homo sapiens, UniProt P20309); assay: Alphascreen Surefire phospho-ERK1/2 functional assay, M3; conditions: for EC50: CHO cells stably expressing human M3, phospho-ERK1/2, read-out: pEC50 M3 (converted); for Emax: CHO, read-out: M3 % Emax cf. ACh
T2 construct: expressed in transfected cells
Procedure, shortened: as §1

[3] = biological target: T3, human muscarinic M4 receptor (Homo sapiens, UniProt P08173); assay: Alphascreen Surefire phospho-ERK1/2 functional assay, M4; conditions: for EC50: CHO cells stably expressing human M4, phospho-ERK1/2, read-out: pEC50 M4 (converted); for Emax: CHO, read-out: M4 % Emax cf. ACh, CHO cells stably expressing human M4, Emax relative to ACh
T3 construct: expressed in transfected cells
T3 sequence (P08173 1-479): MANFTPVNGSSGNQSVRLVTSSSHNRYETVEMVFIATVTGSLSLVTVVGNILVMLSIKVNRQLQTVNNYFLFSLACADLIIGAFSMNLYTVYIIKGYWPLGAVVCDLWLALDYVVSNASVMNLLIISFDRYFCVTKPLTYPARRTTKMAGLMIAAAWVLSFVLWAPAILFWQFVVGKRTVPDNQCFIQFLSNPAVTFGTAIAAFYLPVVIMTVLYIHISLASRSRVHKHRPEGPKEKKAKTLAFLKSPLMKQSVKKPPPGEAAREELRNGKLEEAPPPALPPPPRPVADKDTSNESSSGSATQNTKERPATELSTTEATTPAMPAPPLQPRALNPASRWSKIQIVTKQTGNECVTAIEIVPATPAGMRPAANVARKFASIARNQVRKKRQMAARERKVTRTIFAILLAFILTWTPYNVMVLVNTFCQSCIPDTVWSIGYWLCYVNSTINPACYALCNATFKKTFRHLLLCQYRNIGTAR
Procedure, shortened: as §1

[4] = biological target: T4, human muscarinic M1 receptor (Homo sapiens, UniProt P11229); assay: Alphascreen Surefire phospho-ERK1/2 functional assay, M1; conditions: for EC50: CHO cells stably expressing human M1, phospho-ERK1/2, read-out: pEC50 M1 (converted); for Emax: CHO, read-out: M1 % Emax cf. ACh, CHO cells stably expressing human M1, Emax relative to ACh
T4 sequence (P11229 1-460): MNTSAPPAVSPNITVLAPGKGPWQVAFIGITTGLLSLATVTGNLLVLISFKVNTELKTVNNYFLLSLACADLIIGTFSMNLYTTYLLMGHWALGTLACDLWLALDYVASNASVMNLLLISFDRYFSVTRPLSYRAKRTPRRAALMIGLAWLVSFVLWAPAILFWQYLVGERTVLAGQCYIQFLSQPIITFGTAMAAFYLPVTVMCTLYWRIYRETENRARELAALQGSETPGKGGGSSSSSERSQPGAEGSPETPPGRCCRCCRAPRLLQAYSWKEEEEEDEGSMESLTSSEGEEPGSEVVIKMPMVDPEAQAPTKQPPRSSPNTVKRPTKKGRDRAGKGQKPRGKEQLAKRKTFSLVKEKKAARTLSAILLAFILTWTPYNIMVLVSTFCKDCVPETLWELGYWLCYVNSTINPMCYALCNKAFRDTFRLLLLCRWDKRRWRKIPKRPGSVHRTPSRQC
Procedure, shortened: as §1

T2 sequence (P20309 whole entry): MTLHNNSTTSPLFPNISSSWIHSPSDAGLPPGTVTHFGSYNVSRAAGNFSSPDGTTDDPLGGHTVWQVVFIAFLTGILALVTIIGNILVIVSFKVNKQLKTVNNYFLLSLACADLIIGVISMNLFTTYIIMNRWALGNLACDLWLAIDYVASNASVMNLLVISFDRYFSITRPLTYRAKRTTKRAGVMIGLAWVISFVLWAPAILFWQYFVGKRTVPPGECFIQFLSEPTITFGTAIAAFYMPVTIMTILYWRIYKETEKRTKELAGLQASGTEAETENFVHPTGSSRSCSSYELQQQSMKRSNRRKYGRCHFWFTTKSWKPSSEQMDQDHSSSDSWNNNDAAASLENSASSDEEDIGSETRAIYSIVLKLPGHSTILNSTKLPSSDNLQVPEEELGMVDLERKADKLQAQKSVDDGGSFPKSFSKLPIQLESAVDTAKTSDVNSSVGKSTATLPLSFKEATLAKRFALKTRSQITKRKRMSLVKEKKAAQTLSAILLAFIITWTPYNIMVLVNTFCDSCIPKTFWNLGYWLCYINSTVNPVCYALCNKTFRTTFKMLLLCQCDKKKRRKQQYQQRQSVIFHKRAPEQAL

Row | SMILES | EC50 [1] | Emax [1] | EC50 [2] | Emax [2] | EC50 [3] | Emax [3] | EC50 [4] | Emax [4]
1 | CCOC(=O)N1CCCN(C2CCC(C#N)(c3ccc(Br)cn3)CC2)CC1 (single isomer, unassigned) [3-17 Isomer 1] | > 20000 nM | 0% | > 20000 nM | 0% | 72.4 nM | 80% | 3.02 nM | 92%
2 | CCCC(=O)N1CCCN(C2CCC3(CC2)C(=O)Nc2ccccc23)CC1 (single isomer, unassigned) [4-3 isomer 2] | > 20000 nM | 3% | > 20000 nM | 2% | > 20000 nM | 20% | 794 nM | 57%
3 | CCOC(=O)N1CCCN(C2CCC(C#N)(c3ccc(OCC)cn3)CC2)CC1 (single isomer, unassigned) [3-20 Isomer 2] | > 20000 nM | 27% | > 20000 nM | 2% | > 20000 nM | 7% | 11.5 nM | 139%
4 | N#CC1(c2ccccc2)CCC(N2CC3(CC(c4nc(C(F)(F)F)no4)C3)C2)CC1 (single isomer, unassigned) [20-1 Isomer 2] | > 20000 nM | 61% | > 20000 nM | 30% | 126 nM | 58% | 219 nM | 78%
5 | CCOC(=O)N1CCCN(C2CCC(C#N)(c3ccc(Cl)cn3)CC2)CC1 (mixture of isomers) [3-16 mixture of isomers] | > 20000 nM | 10% | > 20000 nM | 39% | 126 nM | 90% | 6.61 nM | 103%
6 | CCOC(=O)N[C@H]1CCN(C2CCC3(CC2)C(=O)Nc2ccccc23)C1 (single isomer, unassigned) [2-1 isomer 1] | > 20000 nM | 2% | > 20000 nM | 4% | > 20000 nM | 10% | 74.1 nM | 74%
7 | CCOC(=O)N[C@H]1CCN(C2CCC3(CC2)C(=O)Nc2cccc(C)c23)C1 (single isomer, unassigned) [2-6 isomer 1] | > 20000 nM | 11% | > 20000 nM | 16% | 60.3 nM | 54% | 186 nM | 66%

The remaining lines, values ahead:

Row | EC50 [1] | Emax [1] | EC50 [2] | Emax [2] | EC50 [3] | Emax [3] | EC50 [4] | Emax [4] | SMILES
8 | > 20000 nM | 16% | > 20000 nM | 23% | 105 nM | 62% | 219 nM | 89% | O=C1Nc2ccccc2C12CCC(N[C@@H]1CC[C@H](c3nc(C(F)(F)F)no3)C1)CC2 (single isomer, unassigned) [24-1 Isomer 1]
9 | > 20000 nM | 22% | > 20000 nM | 7% | 40.7 nM | 50% | 15.1 nM | 74% | Cc1ccc2c(c1)C1(CCC(N3CCC4(CC(c5nc(C)no5)C4)C3)CC1)C(=O)N2 (single isomer, unassigned) [26-1 Isomer 2]
10 | > 20000 nM | 16% | > 20000 nM | 15% | 61.7 nM | 58% | 72.4 nM | 77% | Cc1noc(C2CC3(CCN(C4CCC(C#N)(c5ccccc5F)CC4)C3)C2)n1 (single isomer, unassigned) [21-2 Isomer 3]
11 | > 20000 nM | 20% | > 20000 nM | 17% | 219 nM | 39% | 79.4 nM | 76% | Cc1ccc2c(c1)NC(=O)C21CCC(N2CCC[C@@H](c3nc(C)no3)C2)CC1 (single isomer, unassigned) [22-4 Isomer 1]
